According to US9938269B2, “Inhibitor compounds of phosphodiesterase type 10A” (ABBVIE INC., priority 2011, dated 2018):
Structures can show the parent of a compound that is named as a salt.

System: not listed separately
Test: Determination of the microsomal half-life, rat liver microsomes
Conditions: rat liver microsomes, 0.5 μM test substance, 0.25 mg microsomal protein, pH 7.4, 37° C., NADPH

With `O=C1c2c(cccc2-c2ccncc2)CN1CCc1ccnc(-c2ccccc2)n1` [Example 122, (2-(2-Phenylpyrimidin-4-yl)ethyl)-7-(pyridin-4-yl)isoindolin-1-one] the “Rat mCl (mikrosomal clearance)” value was “+ (+: 100-220 μl min^−1 mg^−1)”.

Same assay, conditions: rat, liver microsomes, pH 7.4

First: CN1CCN(C2CCN(c3cccc4c3C(=O)N(CCc3ccc5ccccc5n3)C4)CC2)CC1 [Example 100, 7-[4-(4-Methyl-piperazin-1-yl)-piperidin-1-yl]-2-(2-quinolin-2-yl-ethyl)-2,3-dihydro-isoindol-1-one trifluoroacetate]
Second: CN1CCN(c2cccc3c2CN(CCc2ccc4ccccc4n2)C3=O)CC1 [Example 144, 4-(4-Methyl-piperazin-1-yl)-2-(2-quinolin-2-yl-ethyl)-2,3-dihydro-isoindol-1-one]
The microsomal CLint at 0.5 μM of the first is lower: under 100 µL/min/mg for the first, 100 to 220 µL/min/mg for the second.

First: O=C1c2c(cccc2OCc2ccncc2)CN1CCc1ccc2ccccc2n1 [Example 128, 7-(Pyridin-4-ylmethoxy)-2-(2-quinolin-2-yl-ethyl)-2,3-dihydro-isoindol-1-one]
Second: O=C1c2c(cccc2OCc2ccccn2)CN1CCc1ccc2ccccc2n1 [Example 129, 7-(Pyridin-2-ylmethoxy)-2-(2-quinolin-2-yl-ethyl)-2,3-dihydro-isoindol-1-one]
The microsomal CLint at 0.5 μM of the first is higher: 100 to 220 µL/min/mg for the first, under 100 µL/min/mg for the second.

`C=C(C)c1ccc(Oc2ccc(-c3cccc4c3C(=O)N(CCc3ccc5ccccc5n3)C4)cc2)cc1` [Example 146, 7-[4-(4-Isopropenyl-phenoxy)-phenyl]-2-(2-quinolin-2-yl-ethyl)-2,3-dihydro-isoindol-1-one] and `O=C1c2c(N3CCOCC3)ccnc2CN1CCc1cc2ccccc2o1` [compound 397, 6-[2-(Benzofuran-2-yl)ethyl]-4-morpholino-7H-pyrrolo[3,4-b]pyridin-5-one] fall in the same range of microsomal CLint at 0.5 μM: 100 to 220 µL/min/mg for the first, 100 to 220 µL/min/mg for the second.

System: not listed separately
Test: Determination of the microsomal half-life, human liver microsomes
Conditions: human liver microsomes, 0.5 μM test substance, 0.25 mg microsomal protein, pH 7.4, 37° C., NADPH

For `O=C1c2c(cccc2-c2ccncc2)CN1CCc1ccnc(-c2ccccc2)n1` [Example 122, (2-(2-Phenylpyrimidin-4-yl)ethyl)-7-(pyridin-4-yl)isoindolin-1-one], the “Human mCl (mikrosomal clearance)” value was “++ (++: 100 μl min^−1 mg^−1)”.

Same assay, conditions: human, liver microsomes, pH 7.4

First: CN1CCN(C2CCN(c3cccc4c3C(=O)N(CCc3ccc5ccccc5n3)C4)CC2)CC1 [Example 100, 7-[4-(4-Methyl-piperazin-1-yl)-piperidin-1-yl]-2-(2-quinolin-2-yl-ethyl)-2,3-dihydro-isoindol-1-one trifluoroacetate]
Second: CN1CCN(c2cccc3c2CN(CCc2ccc4ccccc4n2)C3=O)CC1 [Example 144, 4-(4-Methyl-piperazin-1-yl)-2-(2-quinolin-2-yl-ethyl)-2,3-dihydro-isoindol-1-one]
The microsomal CLint at 0.5 μM of the first is higher: 100 to 220 µL/min/mg for the first, under 100 µL/min/mg for the second.

First: O=C1c2c(cccc2-c2ccncc2)CN1CCc1cccc(-c2ncccn2)c1 [Example 121, 7-(Pyridin-4-yl)-2-(3-(pyrimidin-2-yl)phenethyl)isoindolin-1-one]
Second: O=C1c2c(cccc2OCc2ccncc2)CN1CCc1ccc2ccccc2n1 [Example 128, 7-(Pyridin-4-ylmethoxy)-2-(2-quinolin-2-yl-ethyl)-2,3-dihydro-isoindol-1-one]
The microsomal CLint at 0.5 μM of the first is lower: 100 to 220 µL/min/mg for the first, over 220 µL/min/mg for the second.

First: O=C1c2c(cccc2OCc2ccccn2)CN1CCc1ccc2ccccc2n1 [Example 129, 7-(Pyridin-2-ylmethoxy)-2-(2-quinolin-2-yl-ethyl)-2,3-dihydro-isoindol-1-one]
Second: C=C(C)c1ccc(Oc2ccc(-c3cccc4c3C(=O)N(CCc3ccc5ccccc5n3)C4)cc2)cc1 [Example 146, 7-[4-(4-Isopropenyl-phenoxy)-phenyl]-2-(2-quinolin-2-yl-ethyl)-2,3-dihydro-isoindol-1-one]
The microsomal CLint at 0.5 μM of the first is lower: 100 to 220 µL/min/mg for the first, over 220 µL/min/mg for the second.

Target: T1, PDE10A (human) (Homo sapiens, UniProt Q9Y233)
T1 construct: purchased BPS Bioscience
Test: Measurement of PDE activity (HTRF cAMP kit), human PDE10A
Assay type: biochemical
Conditions: PDE enzymatic reaction, substrate 20 nM for PDE10, 60 minutes at 29 C
How it was run: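 Recombinant human PDE10A (10–250 pM range across PDEs) with 20 nM cAMP substrate in 20 mM Tris-HCl pH 7.5, 10 mM MgCl2, 0.1% BSA, compound pre-mixed with enzyme. Ran 60 min at 29 °C. Remaining cAMP read by HTRF, converted to % of uninhibited activity, and IC50 fitted.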

T1 sequence (Q9Y233 whole entry): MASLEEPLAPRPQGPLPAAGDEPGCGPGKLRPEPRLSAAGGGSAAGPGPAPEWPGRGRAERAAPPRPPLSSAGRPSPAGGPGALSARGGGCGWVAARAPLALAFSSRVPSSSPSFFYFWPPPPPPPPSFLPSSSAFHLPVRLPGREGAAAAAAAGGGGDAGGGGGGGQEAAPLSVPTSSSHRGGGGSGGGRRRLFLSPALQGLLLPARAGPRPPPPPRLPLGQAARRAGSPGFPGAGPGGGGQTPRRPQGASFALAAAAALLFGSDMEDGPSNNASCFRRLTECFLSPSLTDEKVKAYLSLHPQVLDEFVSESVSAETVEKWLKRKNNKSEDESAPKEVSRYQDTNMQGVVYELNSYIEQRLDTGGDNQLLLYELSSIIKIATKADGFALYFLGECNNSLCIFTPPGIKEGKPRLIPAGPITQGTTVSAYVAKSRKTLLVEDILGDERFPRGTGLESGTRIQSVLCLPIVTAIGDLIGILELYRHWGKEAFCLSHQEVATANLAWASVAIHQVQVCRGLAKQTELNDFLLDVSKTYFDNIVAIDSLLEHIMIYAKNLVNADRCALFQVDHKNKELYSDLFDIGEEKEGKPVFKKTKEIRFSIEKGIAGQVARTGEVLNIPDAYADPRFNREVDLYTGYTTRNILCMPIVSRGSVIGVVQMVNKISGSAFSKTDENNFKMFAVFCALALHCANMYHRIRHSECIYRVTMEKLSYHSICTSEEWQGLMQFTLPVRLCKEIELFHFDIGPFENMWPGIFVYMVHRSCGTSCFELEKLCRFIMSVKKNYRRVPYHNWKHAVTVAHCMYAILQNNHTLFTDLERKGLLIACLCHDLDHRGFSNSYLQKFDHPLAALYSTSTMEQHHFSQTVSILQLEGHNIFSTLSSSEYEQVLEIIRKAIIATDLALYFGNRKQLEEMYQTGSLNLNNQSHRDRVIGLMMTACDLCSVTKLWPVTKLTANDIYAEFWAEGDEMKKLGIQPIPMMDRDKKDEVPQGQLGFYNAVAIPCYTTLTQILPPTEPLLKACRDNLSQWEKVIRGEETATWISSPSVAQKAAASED

Compared with `O=C1c2c(cccc2-c2ccncc2)CN1CCc1cccc(-c2ncccn2)c1` [Example 121, 7-(Pyridin-4-yl)-2-(3-(pyrimidin-2-yl)phenethyl)isoindolin-1-one], `O=C1c2c(-c3ccncc3)ccnc2CN1CCc1cc(-c2ccncc2)c2ccccc2n1` [compound 484, 4-(4-Pyridyl)-6-[2-[4-(4-pyridyl)-2-quinolyl]ethyl]-7H-pyrrolo[3,4-b]pyridin-5-one] is lower in IC50: 200 to 500 nM for the first, under 100 nM for the second. The second is the more potent here.

First: Cc1ccsc1-c1cccc2c1CN(CCc1ccc3ccccc3n1)C2=O [Example 351, 4-(3-Methyl-thiophen-2-yl)-2-(2-quinolin-2-yl-ethyl)-2,3-dihydro-isoindol-1-one]
Second: Cn1ccc(-c2cccc3c2CN(CCc2ccc4ccccc4n2)C3=O)c1 [Example 352, 4-(1-Methyl-1H-pyrrol-3-yl)-2-(2-quinolin-2-yl-ethyl)-2,3-dihydro-isoindol-1-one]
The IC50 of the first is higher: 200 to 500 nM for the first, 100 to 200 nM for the second.

First: O=C1c2cccc(-c3ccnc(C4CC4)c3)c2CN1CCc1ccc2ccccc2n1 [Example 354, 4-(2-Cyclopropyl-pyridin-4-yl)-2-(2-quinolin-2-yl-ethyl)-2,3-dihydro-isoindol-1-one]
Second: O=C1c2cccc(-c3cscn3)c2CN1CCc1ccc2ccccc2n1 [Example 355, 2-(2-Quinolin-2-yl-ethyl)-4-thiazol-4-yl-2,3-dihydro-isoindol-1-one]
The IC50 of the first is higher: 200 to 500 nM for the first, under 100 nM for the second.

First: COc1cncc(-c2cccc3c2CN(CCc2ccc4ccccc4n2)C3=O)n1 [Example 356, 4-(6-Methoxy-pyrazin-2-yl)-2-(2-quinolin-2-yl-ethyl)-2,3-dihydro-isoindol-1-one]
Second: COc1cnccc1-c1cccc2c1CN(CCc1ccc3ccccc3n1)C2=O [compound 388, 4-(3-Methoxy-4-pyridyl)-2-[2-(2-quinolyl)ethyl]isoindolin-1-one]
The IC50 of the first is higher: 200 to 500 nM for the first, 100 to 200 nM for the second. The second is the more potent here.

Compared with `O=C1c2c(cccc2-c2ccn[nH]2)CN1CCc1ccc2sccc2n1` [Example 560, 7-(1H-Pyrazol-5-yl)-2-(2-thieno[3,2-b]pyridin-5-ylethyl)isoindolin-1-one], `O=C1c2c(-c3cn[nH]c3)ccc(F)c2CN1CCc1ccc2ccccc2n1` [compound 442, 4-Fluoro-7-(1H-pyrazol-4-yl)-2-[2-(2-quinolyl)ethyl]isoindolin-1-one trifluoroacetate] is lower in IC50: 100 to 200 nM for the first, under 100 nM for the second.

Compared with `COc1cnccc1-c1ccnc2c1C(=O)N(CCc1ccc3ccccc3n1)C2` [compound 389, 4-(3-Methoxy-4-pyridyl)-6-[2-(2-quinolyl)ethyl]-7H-pyrrolo[3,4-b]pyridin-5-one], `O=C1c2c(-c3ccncc3F)ccnc2CN1CCc1ccc2ccccc2n1` [compound 412, 4-(3-Fluoro-pyridin-4-yl)-6-(2-quinolin-2-yl-ethyl)-6,7-dihydro-pyrrolo[3,4-b]pyridin-5-one] is lower in IC50: 100 to 200 nM for the first, under 100 nM for the second.

`Cc1ccc2ccc(CCN3Cc4nccc(N5CCOCC5)c4C3=O)nc2c1` [compound 392, 6-[2-(7-Methyl-2-quinolyl)ethyl]-4-morpholino-7H-pyrrolo[3,4-b]pyridin-5-one] and `CCc1ccc(CCN2Cc3nccc(N4CCOCC4)c3C2=O)nc1` [compound 499, 6-[2-(5-Ethyl-2-pyridyl)ethyl]-4-morpholino-7H-pyrrolo[3,4-b]pyridin-5-one trifluoroacetate] cannot be ordered by IC50: under 100 nM for the first, under 100 nM for the second.

`Cc1ccc2nc(CCN3Cc4nccc(-c5ccncc5)c4C3=O)ccc2c1` [compound 406, 6-[2-(6-Methyl-2-quinolyl)ethyl]-4-(4-pyridyl)-7H-pyrrolo[3,4-b]pyridin-5-one] and `O=C1c2c(-c3ccncc3)ccnc2CN1CCc1cn2ccsc2n1` [compound 423, 6-(2-Imidazo[2,1-b]thiazol-6-ylethyl)-4-(4-pyridyl)-7H-pyrrolo[3,4-b]pyridin-5-one trifluoroacetate] cannot be ordered by IC50: under 100 nM for the first, under 100 nM for the second.

`CCc1csc(CCN2Cc3nccc(-c4ccncc4)c3C2=O)n1` [compound 407, 6-[2-(4-Ethylthiazol-2-yl)ethyl]-4-(4-pyridyl)-7H-pyrrolo[3,4-b]pyridin-5-one] and `O=C1c2c(-c3ccncc3)ccnc2CN1CCc1nc(C2CC2)cs1` [compound 517, 6-[2-(4-Cyclopropylthiazol-2-yl)ethyl]-4-(4-pyridyl)-7H-pyrrolo[3,4-b]pyridin-5-one] cannot be ordered by IC50: under 100 nM for the first, under 100 nM for the second.

`O=C1c2c(N3CCC(C(F)F)C3)ccnc2CN1CCc1ccc2ccccc2n1` (stereo not shown) [compound 434] and `O=C1c2c(N3CCC(CF)C3)ccnc2CN1CCc1ccc2ccccc2n1` (stereo not shown) [compound 435, 4-[3-(Fluoromethyl)pyrrolidin-1-yl]-6-[2-(2-quinolyl)ethyl]-7H-pyrrolo[3,4-b]pyridin-5-one] cannot be ordered by IC50: under 100 nM for the first, under 100 nM for the second.

`O=C1c2c(NC3COC3)ccc(F)c2CN1CCc1ccc2ccccc2n1` [compound 437, 4-Fluoro-7-(oxetan-3-ylamino)-2-[2-(2-quinolyl)ethyl]isoindolin-1-one] and `O=C1c2c(N3CCOCC3)ccc(F)c2CN1CCc1ccc2ccccc2n1` [compound 440, 4-Fluoro-7-morpholino-2-[2-(2-quinolyl)ethyl]isoindolin-1-one] cannot be ordered by IC50: under 100 nM for the first, under 100 nM for the second.

`O=C1c2c(-c3cccnc3)ccc(F)c2CN1CCc1ccc2ccccc2n1` [compound 438, 4-fluoro-7-(3-pyridyl)-2-[2-(2-quinolyl)ethyl]isoindolin-1-one] and `O=C1c2c(-c3cncnc3)ccc(F)c2CN1CCc1ccc2ccccc2n1` [compound 443, 4-Fluoro-7-pyrimidin-5-yl-2-[2-(2-quinolyl)ethyl]isoindolin-1-one trifluoroacetate] cannot be ordered by IC50: under 100 nM for the first, under 100 nM for the second.

`Cn1nccc1-c1ccc(F)c2c1C(=O)N(CCc1ccc3ccccc3n1)C2` [compound 439, 4-Fluoro-7-(2-methylpyrazol-3-yl)-2-[2-(2-quinolyl)ethyl]isoindolin-1-one] and `O=C1c2c(-c3ccc(F)cc3)ccc(F)c2CN1CCc1ccc2ccccc2n1` [compound 444, 4-Fluoro-7-(4-fluorophenyl)-2-[2-(2-quinolyl)ethyl]isoindolin-1-one] cannot be ordered by IC50: under 100 nM for the first, under 100 nM for the second.

Compared with `COc1ccc(-c2ccc(F)c3c2C(=O)N(CCc2ccc4ccccc4n2)C3)cc1` [compound 441, 4-Fluoro-7-(4-methoxyphenyl)-2-[2-(2-quinolyl)ethyl]isoindolin-1-one], `COc1ccc(-c2ccnc3c2CN(CCc2ccc4ccccc4n2)C3=O)cc1` [compound 458, 4-(4-Methoxy-phenyl)-6-(2-quinolin-2-yl-ethyl)-5,6-dihydro-pyrrolo[3,4-b]pyridin-7-one trifluoroacetate] is lower in IC50: 100 to 200 nM for the first, under 100 nM for the second. The second is the more potent here.

`O=C1c2c(-c3ccsc3)ccnc2CN1CCc1cn2ccccc2n1` [compound 523, 6-(2-Imidazo[1,2-a]pyridin-2-ylethyl)-4-(3-thienyl)-7H-pyrrolo[3,4-b]pyridin-5-one] and `O=C1c2c(N3CCC(F)(F)CC3)ccnc2CN1CCc1nc2ccccc2s1` [compound 527, 6-[2-(1,3-Benzothiazol-2-yl)ethyl]-4-(4,4-difluoro-1-piperidyl)-7H-pyrrolo[3,4-b]pyridin-5-one trifluoroacetate] cannot be ordered by IC50: under 100 nM for the first, under 100 nM for the second.

`O=C1c2c(OCCF)ccc(-c3ccncc3)c2C(=O)N1CCc1ccc2ccccc2n1` [compound 532, 4-(2-Fluoro-ethoxy)-7-pyridin-4-yl-2-(2-quinolin-2-yl-ethyl)-isoindole-1,3-dione] and `O=C1c2c(-c3ccncc3)ccc(OCCF)c2CN1CCc1ccc2ccccc2n1` [compound 533, 4-(2-Fluoro-ethoxy)-7-pyridin-4-yl-2-(2-quinolin-2-yl-ethyl)-2,3-dihydro-isoindol-1-one] cannot be ordered by IC50: under 100 nM for the first, under 100 nM for the second.
